# Measured values: patent US9518026B2, “5-aminopyrazole-4-carboxamide inhibitors of CDPK1 from T. gondii and C. parvum” (UNIVERSITY OF WASHINGTON THROUGH ITS CENTER FOR …, priority 2013, dated 2016)
# Read-outs that look alike come from different tables or passages of the source.
# Experiments:
# [1] = Cell toxicity in HepG2; assay type: cell-based; settings: human, HepG2 cells (hepatocellular carcinoma); Table 4
# Procedure: All compounds were assayed for inhibition of TgCDPK1 and CpCDPK1 and on the small-gatekeeper (Thr) human kinases, Src and Abl. Human cell toxicity was evaluated in two human cell lines, HepG2 (hepatocellular carcinoma) and CRL8155 (lymphoblast, spleen). hERG inhibition has been associated with long Q-T syndrome (cardiotoxicity), and the compounds were evaluated for hERG inhibitory activity.
# [2] = test system: C. parvum; assay: Inhibition of C. parvum proliferation; assay type: cell-based; settings: Cryptosporidium parvum, read-out: Inhibit Parasite Prolif. (EC50, μM) C. parvum
# [3] = Cytotoxicity against CRL8155 cell line; assay type: cell-based; settings: human, CRL8155 cells (lymphoblast, spleen)
# [4] = target: hERG (Homo sapiens (Human), UniProt Q12809); assay: biochemical; assay type: binding
# hERG, sequence (Q12809 whole entry): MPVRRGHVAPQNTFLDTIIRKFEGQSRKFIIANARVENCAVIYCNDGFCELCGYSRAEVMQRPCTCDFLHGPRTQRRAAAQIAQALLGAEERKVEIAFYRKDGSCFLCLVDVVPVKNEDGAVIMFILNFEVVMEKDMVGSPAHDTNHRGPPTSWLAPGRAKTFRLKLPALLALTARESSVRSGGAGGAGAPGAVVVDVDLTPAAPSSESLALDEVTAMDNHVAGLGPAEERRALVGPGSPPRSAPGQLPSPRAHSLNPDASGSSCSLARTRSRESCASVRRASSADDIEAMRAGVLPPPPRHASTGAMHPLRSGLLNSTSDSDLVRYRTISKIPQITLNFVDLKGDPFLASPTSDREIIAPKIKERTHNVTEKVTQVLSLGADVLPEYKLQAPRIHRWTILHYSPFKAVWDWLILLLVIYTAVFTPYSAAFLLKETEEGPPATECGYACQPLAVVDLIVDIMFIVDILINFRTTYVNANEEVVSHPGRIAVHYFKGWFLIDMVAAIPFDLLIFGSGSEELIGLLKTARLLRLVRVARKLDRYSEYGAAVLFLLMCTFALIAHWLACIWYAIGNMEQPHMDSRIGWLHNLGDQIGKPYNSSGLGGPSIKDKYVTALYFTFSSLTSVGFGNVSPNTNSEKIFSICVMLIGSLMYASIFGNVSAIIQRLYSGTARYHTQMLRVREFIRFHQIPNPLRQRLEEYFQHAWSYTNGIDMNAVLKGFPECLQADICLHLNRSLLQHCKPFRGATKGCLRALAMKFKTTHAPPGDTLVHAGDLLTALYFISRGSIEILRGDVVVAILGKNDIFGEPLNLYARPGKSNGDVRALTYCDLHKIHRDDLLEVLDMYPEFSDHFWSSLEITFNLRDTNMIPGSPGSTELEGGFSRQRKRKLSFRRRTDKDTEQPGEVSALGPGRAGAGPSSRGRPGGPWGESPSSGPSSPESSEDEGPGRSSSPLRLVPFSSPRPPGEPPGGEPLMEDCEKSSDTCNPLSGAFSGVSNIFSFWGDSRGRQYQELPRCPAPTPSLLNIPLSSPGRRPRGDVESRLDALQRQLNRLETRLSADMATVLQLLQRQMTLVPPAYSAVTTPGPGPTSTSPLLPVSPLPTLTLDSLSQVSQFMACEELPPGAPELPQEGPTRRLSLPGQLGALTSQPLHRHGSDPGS
# [5] = Pharmacokinetic studies in mice; settings: mouse, in vivo, 10 mg/kg
# [6] = target: Src (Homo sapiens (Human), UniProt P12931); assay: biochemical
# Src, sequence (P12931 270-523): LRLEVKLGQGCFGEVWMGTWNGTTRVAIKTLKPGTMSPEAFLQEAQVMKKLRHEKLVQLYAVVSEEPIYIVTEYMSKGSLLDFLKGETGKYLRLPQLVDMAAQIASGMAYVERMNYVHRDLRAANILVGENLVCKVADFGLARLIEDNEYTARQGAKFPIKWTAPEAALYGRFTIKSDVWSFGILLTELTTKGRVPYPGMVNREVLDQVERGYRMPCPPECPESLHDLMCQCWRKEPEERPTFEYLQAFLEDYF
# [7] = target: TgCDPK1 (Toxoplasma gondii, UniProt Q9BJF5); assay: biochemical
# TgCDPK1, sequence (Q9BJF5 1-507): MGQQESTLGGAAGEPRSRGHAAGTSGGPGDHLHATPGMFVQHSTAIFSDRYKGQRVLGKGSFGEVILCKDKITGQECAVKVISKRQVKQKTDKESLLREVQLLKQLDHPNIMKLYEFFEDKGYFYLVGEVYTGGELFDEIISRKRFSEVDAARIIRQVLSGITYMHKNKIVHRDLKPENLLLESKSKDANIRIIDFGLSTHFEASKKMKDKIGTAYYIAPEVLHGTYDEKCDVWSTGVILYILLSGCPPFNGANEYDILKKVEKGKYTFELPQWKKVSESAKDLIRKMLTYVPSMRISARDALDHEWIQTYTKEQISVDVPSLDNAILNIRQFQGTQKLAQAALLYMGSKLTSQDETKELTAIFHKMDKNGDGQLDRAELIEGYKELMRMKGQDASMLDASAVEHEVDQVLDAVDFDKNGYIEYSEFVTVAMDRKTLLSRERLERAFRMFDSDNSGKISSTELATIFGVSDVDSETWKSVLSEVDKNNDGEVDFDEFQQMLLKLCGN
# [8] = target: CpCDPK1 (Cryptosporidium parvum (strain Iowa II), UniProt A3FQ16); assay: biochemical
# CpCDPK1, sequence (A3FQ16 1-538): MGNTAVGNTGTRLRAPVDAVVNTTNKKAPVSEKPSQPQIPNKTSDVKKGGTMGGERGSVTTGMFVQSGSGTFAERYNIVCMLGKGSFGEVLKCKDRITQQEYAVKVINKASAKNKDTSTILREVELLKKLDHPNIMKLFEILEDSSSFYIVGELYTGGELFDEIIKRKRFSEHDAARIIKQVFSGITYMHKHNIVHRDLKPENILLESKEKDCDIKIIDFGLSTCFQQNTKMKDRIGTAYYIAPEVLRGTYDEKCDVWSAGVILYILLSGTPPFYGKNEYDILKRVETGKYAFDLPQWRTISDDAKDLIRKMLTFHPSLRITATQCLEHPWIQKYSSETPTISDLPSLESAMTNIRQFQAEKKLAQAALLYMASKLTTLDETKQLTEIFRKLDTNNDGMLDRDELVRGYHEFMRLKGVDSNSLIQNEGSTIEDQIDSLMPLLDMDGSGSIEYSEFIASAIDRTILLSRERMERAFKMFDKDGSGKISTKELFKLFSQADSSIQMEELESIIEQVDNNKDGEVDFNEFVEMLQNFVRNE
# [9] = target: Abl (Homo sapiens (Human), UniProt P00519); assay: biochemical
# Abl, sequence (P00519 242-493): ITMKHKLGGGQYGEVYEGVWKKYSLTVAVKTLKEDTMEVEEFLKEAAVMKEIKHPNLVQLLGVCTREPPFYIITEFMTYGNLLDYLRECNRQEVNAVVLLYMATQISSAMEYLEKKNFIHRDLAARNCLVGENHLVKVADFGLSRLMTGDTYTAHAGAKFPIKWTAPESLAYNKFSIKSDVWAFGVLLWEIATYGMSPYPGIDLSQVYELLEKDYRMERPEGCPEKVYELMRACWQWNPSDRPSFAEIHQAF
# [10] = test system: T. gondii; assay: Inhibition of T. gondii cell proliferation; assay type: cell-based; settings: Toxoplasma gondii
# [11] = Table 2, read-out: Cytotoxicity (CRL8155) EC50
# [12] = Table 4, read-out: Cell toxicity (EC50, μM) CRL 8155
# [13] = Table 1, KinaseGlo, Syntide 2 peptide substrate, read-out: CpCDPK1 IC50
# [14] = Table 4, read-out: Enzyme Inhibition (IC50, μM) Cp CDPK1
# [15] = Enzyme Inhibition (IC50, μM) SrcKD, Table 4
# [16] = Table 3, read-out: Cytotoxicity (CRL8155) EC50
# [17] = Table 1, KinaseGlo, Syntide 2 peptide substrate, read-out: TgCDPK1 IC50
# [18] = Table 3, read-out: T. gondii EC50
SMILES,EC50 [1] [µM],IC50 [6] [µM],"IC50 [8, 13] [µM]","IC50 ([6]; Src IC50 (μM), Table 3) [µM]","EC50 [3, 16] [µM]","IC50 [7, 17] [µM]","EC50 [10, 18] [µM]",further results
"CCOc1ccc2cc(-c3nn(C(C)(C)C)c(N)c3C(N)=O)ccc2c1 [Compound 3, 5-amino-1-tert-butyl-3-(6-ethoxynaphthalen-2-yl)-1H-pyrazole-4-carboxamide]",> 40,–,–,–,–,–,–,EC50 [2]: 0.05 µM
"COc1ccc2cc(-c3nn(C(C)(C)C)c(N)c3C(N)=O)ccc2c1 [Compound 25, 5-amino-1-(tert-butyl)-3-(6-methoxynaphthalen-2-yl)-1H-pyrazole-4-carboxamide]",> 40,–,–,–,–,–,–,"EC50 [2]: 0.1 µM; EC50 [3, 11]: > 40 µM; EC50 [3, 12]: > 40 µM; IC50 [4]: > 10000 nM; AUC [5]: 5.94 µM·h; Cmax [5]: 3.1 µM; Tmax [5]: 30 min"
"CCCOc1ccc2cc(-c3nn(C(C)(C)C)c(N)c3C(N)=O)ccc2c1 [Compound 26, 5-amino-1-(tert-butyl)-3-(6-propoxynaphthalen-2-yl)-1H-pyrazole-4-carboxamide]",> 40,7.8,0.01,–,–,–,–,"IC50 ([7]; read-out: Enzyme Inhibition (IC50, μM) Tg CDPK1): 0.007 µM; IC50 ([7]; read-out: TgCDPK1 IC50): 0.007 µM; IC50 [8, 14]: 0.01 µM; IC50 [9]: > 10000 nM; EC50 ([10]; Table 4, read-out: Inhibit Parasite Prolif. (EC50, μM) T. gondii): 0.37 µM; EC50 [3, 12]: 38 µM"
"CC(C)(C)n1nc(-c2cnc3ccccc3c2)c(C(N)=O)c1N [Compound 38, 5-amino-1-(tert-butyl)-3-(quinolin-3-yl)-1H-pyrazole-4-carboxamide]",–,–,0.007,–,–,–,–,"IC50 ([6]; Src IC50 (μM), Table 2): > 10 µM; IC50 ([7]; read-out: TgCDPK1 IC50): 0.006 µM; EC50 [3, 11]: > 40 µM"
"COc1ccc2cc(-c3nn(C(C)(C)C)c(N)c3C(N)=O)cnc2c1 [Compound 1543, 5-amino-1-tert-butyl-3-(7-methoxyquinolin-3-yl)-1H-pyrazole-4-carboxamide]",> 40,–,0.003,> 30,> 40,–,–,"IC50 [6, 15]: > 10 µM; IC50 [8, 14]: 0.003 µM; IC50 [9]: > 10000 nM; EC50 [3, 12]: > 40 µM"
"CCCOc1ccc2cc(-c3nn(C(C)(C)C)c(N)c3C(N)=O)cnc2c1 [Compound 1566, 5-amino-1-tert-butyl-3-(7-propoxyquinolin-3-yl)-1H-pyrazole-4-carboxamide]",> 40,–,–,> 10,> 40,–,–,"IC50 [6, 15]: > 10 µM; IC50 [9]: > 10000 nM; EC50 [3, 12]: 16 µM"
"CCOc1ccc2cc(-c3nn(C4CCCCC4)c(N)c3C(N)=O)cnc2c1 [Compound 1571, 5-amino-1-cyclohexyl-3-(7-ethoxyquinolin-3-yl)-1H-pyrazole-4-carboxamide]",> 40,–,0.005,> 10,–,–,–,"IC50 [6, 15]: 10 µM; IC50 [9]: > 10000 nM; EC50 [3, 12]: > 40 µM"
"CCOc1ccc2cc(-c3nn(C(C)C)c(N)c3C(N)=O)cnc2c1 [Compound 1572, 5-amino-3-(7-ethoxyquinolin-3-yl)-1-isopropyl-1H-pyrazole-4-carboxamide]",> 40,–,0.005,–,–,–,–,"EC50 [3, 12]: > 40 µM"
"CCOc1ccc2cc(-c3nn(CC4CC4)c(N)c3C(N)=O)cnc2c1 [Compound 1598, 5-amino-1-(cyclopropylmethyl)-3-(7-ethoxyquinolin-3-yl)-1H-pyrazole-4-carboxamide]",–,–,0.005,> 10,> 40,0.012,–,–
"CCOc1ccc2cc(-c3nn(C4CCCCC4)c(N)c3C(N)=O)ccc2n1 [Compound 1633, 5-amino-1-cyclohexyl-3-(2-ethoxyquinolin-6-yl)-1H-pyrazole-4-carboxamide]",–,–,0.002,> 10,> 40,0.004,–,–
"CCOc1ccc2cc(-c3nn(CC4CC4)c(N)c3C(N)=O)ccc2n1 [Compound 1635, 5-amino-1-(cyclopropylmethyl)-3-(2-ethoxyquinolin-6-yl)-1H-pyrazole-4-carboxamide]",–,–,0.003,> 10,> 40,0.006,–,–
"CC(C)(C)n1nc(-c2ccc3nc(OC4CCC4)ccc3c2)c(C(N)=O)c1N [Compound 1639, 5-amino-1-(tert-butyl)-3-(2-cyclobutoxyquinolin-6-yl)-1H-pyrazole-4-carboxamide]",–,–,0.006,> 10,> 40,0.005,–,–
"CC(C)(C)n1nc(-c2ccc3nc(OC4CC4)ccc3c2)c(C(N)=O)c1N [Compound 1643, 5-amino-1-(tert-butyl)-3-(2-cyclopropoxyquinolin-6-yl)-1H-pyrazole-4-carboxamide]",–,–,0.003,> 10,> 40,0.0057,–,–
"CC(C)(CO)Cn1nc(-c2cnc3cc(OC4CCC4)ccc3c2)c(C(N)=O)c1N [Compound 1644, 5-amino-3-(7-cyclobutoxyquinolin-3-yl)-1-(3-hydroxy-2,2-dimethylpropyl)-1H-pyrazole-4-carboxamide]",–,> 10,0.005,–,> 40,0.012,0.77,–
"CC(C)(CO)Cn1nc(-c2ccc3nc(OC4CCC4)ccc3c2)c(C(N)=O)c1N [Compound 1645, 5-amino-3-(2-cyclobutoxyquinolin-6-yl)-1-(3-hydroxy-2,2-dimethylpropyl)-1H-pyrazole-4-carboxamide]",–,–,0.005,> 10,> 40,–,0.48,–
"NC(=O)c1c(-c2ccc3nc(OC4CCC4)ccc3c2)nn(C2CCCCC2)c1N [Compound 1646, 5-amino-3-(2-cyclobutoxyquinolin-6-yl)-1-cyclohexyl-1H-pyrazole-4-carboxamide]",–,> 10,0.013,–,> 40,0.016,0.31,–
"NC(=O)c1c(-c2cnc3cc(OC4CCC4)ccc3c2)nn(C2CCCCC2)c1N [Compound 1647, 5-amino-3-(7-cyclobutoxyquinolin-3-yl)-1-cyclohexyl-1H-pyrazole-4-carboxamide]",–,> 10,0.008,–,> 40,0.019,1.14,–
"NC(=O)c1c(-c2ccc3nc(OC4CCC4)ccc3c2)nn(C2CCCC2)c1N [Compound 1653, 5-amino-3-(2-cyclobutoxyquinolin-6-yl)-1-cyclopentyl-1H-pyrazole-4-carboxamide]",–,> 10,0.006,–,> 40,0.012,0.21,–
"NC(=O)c1c(-c2ccc3nc(OC4CCC4)ccc3c2)nn(C2CCC2)c1N [Compound 1656, 5-amino-3-(2-cyclobutoxyquinolin-6-yl)-1-cyclobutyl-1H-pyrazole-4-carboxamide]",–,> 10,–,–,> 40,0.007,0.069,–
"NC(=O)c1c(-c2cnc3cc(OC4CCC4)ccc3c2)nn(C2CCC2)c1N [Compound 1657, 5-amino-3-(7-cyclobutoxyquinolin-3-yl)-1-cyclobutyl-1H-pyrazole-4-carboxamide]",–,> 10,–,–,> 40,0.012,0.69,–
"NC(=O)c1c(-c2cnc3cc(OC4CCC4)ccc3c2)nn(C2CCCC2)c1N [Compound 1658, 5-amino-3-(7-cyclobutoxyquinolin-3-yl)-1-cyclopentyl-1H-pyrazole-4-carboxamide]",–,> 10,0.004,–,> 40,0.012,0.4,–
